Literature values as cited in US12115173B2 (Elba Laboratories, priority 2021, dated 2024).

Compound: O=C(O)CO [glycolic acid]
- pKa: about 3.8
